Measured values from ChEMBL document CHEMBL1149372, “Discovery of novel and potent thiazoloquinazolines as selective Aurora A and B kinase inhibitors” (J Med Chem, 2006).
≈ marks a conversion by molar mass, not a printed value.

Assays:
Aurora kinase A = target: T1, Aurora kinase A (Homo sapiens, UniProt O14965)
T1 sequence (O14965 whole entry): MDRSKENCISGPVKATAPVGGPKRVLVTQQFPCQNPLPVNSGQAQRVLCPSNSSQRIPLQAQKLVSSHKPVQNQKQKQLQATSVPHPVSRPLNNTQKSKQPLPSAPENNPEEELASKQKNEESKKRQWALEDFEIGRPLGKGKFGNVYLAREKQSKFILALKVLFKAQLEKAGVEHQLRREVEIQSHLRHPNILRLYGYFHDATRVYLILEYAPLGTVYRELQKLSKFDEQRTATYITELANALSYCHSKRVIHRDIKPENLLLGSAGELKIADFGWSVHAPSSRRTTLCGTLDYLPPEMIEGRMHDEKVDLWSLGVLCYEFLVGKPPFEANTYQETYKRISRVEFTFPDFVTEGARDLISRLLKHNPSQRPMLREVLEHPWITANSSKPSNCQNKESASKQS
Description: Inhibition of Aurora A kinase activity

SW-620 [1] = test: Inhibition of phosphorylation of histone H3 in human SW620 cells; type: functional, cell-based
[2] = Inhibition of Aurora B-INCENP complex activity
[3] = target: Mitogen-activated protein kinase 8 (Homo sapiens, UniProt P45983); test: Inhibitory activity against JNK1alpha
Mitogen-activated protein kinase 8, sequence (P45983 whole entry): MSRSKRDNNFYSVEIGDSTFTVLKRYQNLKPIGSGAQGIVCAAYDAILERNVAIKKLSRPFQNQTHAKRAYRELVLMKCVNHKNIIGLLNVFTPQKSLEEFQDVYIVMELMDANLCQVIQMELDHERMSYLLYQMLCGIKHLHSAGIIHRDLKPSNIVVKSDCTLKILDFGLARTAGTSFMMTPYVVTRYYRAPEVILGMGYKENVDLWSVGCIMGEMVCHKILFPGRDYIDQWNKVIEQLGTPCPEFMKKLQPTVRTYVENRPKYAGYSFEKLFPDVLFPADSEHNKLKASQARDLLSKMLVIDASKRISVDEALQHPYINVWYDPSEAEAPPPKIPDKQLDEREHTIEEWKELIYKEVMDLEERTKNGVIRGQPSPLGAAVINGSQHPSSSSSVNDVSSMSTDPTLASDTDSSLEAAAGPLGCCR

[4] = Distribution coefficient of the compound, log D at pH 7.4; type: physicochemical; details: octanol/water
[5] = target: Vascular endothelial growth factor receptor 2 (Homo sapiens, UniProt P35968); test: Inhibitory activity against KDR
Vascular endothelial growth factor receptor 2, sequence (P35968 whole entry): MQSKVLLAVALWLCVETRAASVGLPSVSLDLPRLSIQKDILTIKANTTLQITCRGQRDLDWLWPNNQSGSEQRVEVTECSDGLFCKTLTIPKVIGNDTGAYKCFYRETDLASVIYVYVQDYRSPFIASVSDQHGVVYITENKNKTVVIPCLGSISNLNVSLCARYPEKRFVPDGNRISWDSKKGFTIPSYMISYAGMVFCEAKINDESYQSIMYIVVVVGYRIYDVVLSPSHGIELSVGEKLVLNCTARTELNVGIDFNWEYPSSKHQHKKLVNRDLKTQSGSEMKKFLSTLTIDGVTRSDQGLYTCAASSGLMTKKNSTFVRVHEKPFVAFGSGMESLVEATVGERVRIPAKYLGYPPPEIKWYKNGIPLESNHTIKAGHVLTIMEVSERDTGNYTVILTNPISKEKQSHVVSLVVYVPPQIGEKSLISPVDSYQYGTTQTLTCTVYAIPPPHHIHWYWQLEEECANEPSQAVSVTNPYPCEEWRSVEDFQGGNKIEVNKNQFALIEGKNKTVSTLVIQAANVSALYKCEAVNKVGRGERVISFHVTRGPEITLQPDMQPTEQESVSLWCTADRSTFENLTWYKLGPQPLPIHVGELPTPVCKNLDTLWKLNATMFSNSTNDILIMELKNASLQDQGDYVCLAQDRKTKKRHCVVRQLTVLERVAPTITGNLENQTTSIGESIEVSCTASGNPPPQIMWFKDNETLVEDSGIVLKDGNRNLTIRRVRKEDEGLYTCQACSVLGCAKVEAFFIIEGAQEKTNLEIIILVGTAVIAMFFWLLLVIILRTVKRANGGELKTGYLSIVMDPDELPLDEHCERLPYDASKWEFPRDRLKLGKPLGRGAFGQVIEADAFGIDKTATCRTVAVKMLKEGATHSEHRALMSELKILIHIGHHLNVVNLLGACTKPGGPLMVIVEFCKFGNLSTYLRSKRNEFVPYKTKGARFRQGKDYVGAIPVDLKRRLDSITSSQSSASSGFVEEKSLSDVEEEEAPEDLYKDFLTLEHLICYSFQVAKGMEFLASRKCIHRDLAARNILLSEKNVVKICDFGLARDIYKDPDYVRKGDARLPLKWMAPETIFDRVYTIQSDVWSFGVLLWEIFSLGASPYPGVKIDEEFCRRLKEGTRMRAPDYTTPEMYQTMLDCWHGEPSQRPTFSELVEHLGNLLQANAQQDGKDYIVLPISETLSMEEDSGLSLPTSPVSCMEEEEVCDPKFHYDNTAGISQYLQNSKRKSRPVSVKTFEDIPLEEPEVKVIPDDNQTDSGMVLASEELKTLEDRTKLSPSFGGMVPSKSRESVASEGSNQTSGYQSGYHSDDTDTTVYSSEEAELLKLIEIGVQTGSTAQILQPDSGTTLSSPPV

[6] = target: Fibroblast growth factor receptor (Homo sapiens, UniProt P22607+P11362+P22455+P21802); test: Inhibitory activity against FGFR; type: protein assay
[7] = Solubility in phosphate buffer at pH 7.4, 25 degC; type: physicochemical
[8] = Clearance in rat; type: ADME, organism-based; details: in vivo
[9] = target: Proto-oncogene tyrosine-protein kinase Src (Homo sapiens, UniProt P12931); test: Inhibitory activity against SRC
Focal adhesion kinase 1 = Focal adhesion kinase 1 (Homo sapiens, UniProt Q05397); test: Inhibitory activity against FAK
Focal adhesion kinase 1, sequence (Q05397 whole entry): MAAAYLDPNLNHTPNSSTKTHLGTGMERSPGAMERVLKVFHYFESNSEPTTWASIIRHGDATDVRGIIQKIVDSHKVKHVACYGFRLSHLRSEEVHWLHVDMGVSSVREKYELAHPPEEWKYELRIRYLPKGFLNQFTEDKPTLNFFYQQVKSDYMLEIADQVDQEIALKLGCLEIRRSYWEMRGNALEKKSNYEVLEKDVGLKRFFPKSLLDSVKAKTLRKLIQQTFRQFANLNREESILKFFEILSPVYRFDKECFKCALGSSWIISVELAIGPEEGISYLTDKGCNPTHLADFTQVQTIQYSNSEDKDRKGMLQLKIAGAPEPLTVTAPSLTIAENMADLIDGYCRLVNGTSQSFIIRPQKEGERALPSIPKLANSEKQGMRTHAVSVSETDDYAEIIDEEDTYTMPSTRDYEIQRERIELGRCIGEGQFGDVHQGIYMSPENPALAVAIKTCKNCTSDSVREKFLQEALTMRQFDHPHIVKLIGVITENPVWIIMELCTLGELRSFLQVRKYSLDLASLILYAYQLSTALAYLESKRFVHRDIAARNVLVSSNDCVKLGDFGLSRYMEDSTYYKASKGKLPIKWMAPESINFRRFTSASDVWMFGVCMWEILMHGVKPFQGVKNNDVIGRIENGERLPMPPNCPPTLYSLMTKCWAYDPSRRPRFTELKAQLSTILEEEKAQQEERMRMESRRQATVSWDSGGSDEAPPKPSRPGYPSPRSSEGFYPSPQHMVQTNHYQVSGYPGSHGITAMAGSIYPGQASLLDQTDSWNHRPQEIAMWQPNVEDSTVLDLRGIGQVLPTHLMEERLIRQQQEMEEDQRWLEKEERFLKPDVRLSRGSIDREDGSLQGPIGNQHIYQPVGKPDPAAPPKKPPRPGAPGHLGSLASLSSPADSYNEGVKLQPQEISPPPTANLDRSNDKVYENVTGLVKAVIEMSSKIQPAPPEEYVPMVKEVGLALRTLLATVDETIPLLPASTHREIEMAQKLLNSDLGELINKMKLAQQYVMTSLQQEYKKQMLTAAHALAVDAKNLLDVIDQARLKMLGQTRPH

[10] = target: Tyrosine-protein kinase CSK (Homo sapiens, UniProt P41240); test: Inhibitory activity against CSK
Tyrosine-protein kinase CSK, sequence (P41240 whole entry): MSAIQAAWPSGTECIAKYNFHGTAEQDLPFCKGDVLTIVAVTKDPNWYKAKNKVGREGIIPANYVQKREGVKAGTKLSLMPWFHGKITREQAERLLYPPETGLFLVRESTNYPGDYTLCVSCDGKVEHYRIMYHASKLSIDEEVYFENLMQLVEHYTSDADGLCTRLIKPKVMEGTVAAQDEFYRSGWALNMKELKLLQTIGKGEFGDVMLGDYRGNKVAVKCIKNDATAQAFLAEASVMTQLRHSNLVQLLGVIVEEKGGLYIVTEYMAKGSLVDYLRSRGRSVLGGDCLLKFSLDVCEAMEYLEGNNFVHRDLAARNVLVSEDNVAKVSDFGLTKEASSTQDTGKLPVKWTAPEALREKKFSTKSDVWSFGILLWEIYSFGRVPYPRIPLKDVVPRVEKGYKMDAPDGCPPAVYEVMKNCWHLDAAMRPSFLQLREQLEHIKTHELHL

[11] = target: Cyclin-dependent kinase 2 (Homo sapiens, UniProt P24941); test: Inhibitory activity against CDK2
[12] = Free drug level in rat serum albumin; type: ADME, organism-based
[13] = Half life in rat; type: ADME, organism-based; details: in vivo
[14] = target: cAMP-dependent protein kinase (PKA) (Homo sapiens, UniProt P22694+P17612+P22612); test: Inhibitory activity against PKA; type: protein assay
[15] = target: Insulin-like growth factor 1 receptor (Homo sapiens, UniProt P08069); test: Inhibitory activity against IGFR
Insulin-like growth factor 1 receptor, sequence (P08069 31-736 limits assumed): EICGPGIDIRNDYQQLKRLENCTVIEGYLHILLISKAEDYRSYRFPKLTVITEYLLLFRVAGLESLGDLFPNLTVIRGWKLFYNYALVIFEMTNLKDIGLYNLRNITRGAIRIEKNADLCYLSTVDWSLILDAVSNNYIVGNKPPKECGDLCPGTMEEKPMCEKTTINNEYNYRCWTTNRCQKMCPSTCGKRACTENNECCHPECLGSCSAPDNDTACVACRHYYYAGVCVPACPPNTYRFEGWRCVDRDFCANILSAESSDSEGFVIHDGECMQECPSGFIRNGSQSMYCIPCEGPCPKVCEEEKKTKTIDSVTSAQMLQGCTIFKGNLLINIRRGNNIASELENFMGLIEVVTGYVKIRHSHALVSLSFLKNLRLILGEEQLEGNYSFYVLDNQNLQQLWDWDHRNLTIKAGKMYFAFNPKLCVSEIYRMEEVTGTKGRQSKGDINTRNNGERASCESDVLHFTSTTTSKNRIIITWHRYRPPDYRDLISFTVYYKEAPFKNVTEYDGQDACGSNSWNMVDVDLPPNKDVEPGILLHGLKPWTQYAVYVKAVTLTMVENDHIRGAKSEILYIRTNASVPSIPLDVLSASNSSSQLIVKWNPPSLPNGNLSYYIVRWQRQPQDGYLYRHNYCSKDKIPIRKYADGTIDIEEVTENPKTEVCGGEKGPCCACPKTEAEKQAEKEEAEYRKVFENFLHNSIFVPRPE
Insulin-like growth factor 1 receptor, sequence (P08069 741-1367 limits assumed): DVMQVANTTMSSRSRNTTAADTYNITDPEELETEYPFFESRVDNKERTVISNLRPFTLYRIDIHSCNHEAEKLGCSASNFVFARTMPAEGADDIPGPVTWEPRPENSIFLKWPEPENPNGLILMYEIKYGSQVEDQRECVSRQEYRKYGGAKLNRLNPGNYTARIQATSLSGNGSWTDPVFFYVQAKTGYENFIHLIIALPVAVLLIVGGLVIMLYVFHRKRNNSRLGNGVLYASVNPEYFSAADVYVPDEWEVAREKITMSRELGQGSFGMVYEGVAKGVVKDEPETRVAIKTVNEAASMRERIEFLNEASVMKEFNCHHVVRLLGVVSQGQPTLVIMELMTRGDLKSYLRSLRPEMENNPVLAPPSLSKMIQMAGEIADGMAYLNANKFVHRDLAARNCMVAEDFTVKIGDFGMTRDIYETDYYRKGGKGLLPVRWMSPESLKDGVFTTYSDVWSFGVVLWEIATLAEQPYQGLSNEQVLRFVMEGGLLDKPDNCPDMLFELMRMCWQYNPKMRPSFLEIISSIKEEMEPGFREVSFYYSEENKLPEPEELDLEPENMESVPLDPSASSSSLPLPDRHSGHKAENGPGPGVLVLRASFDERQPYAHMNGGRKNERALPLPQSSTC

[16] = target: T2, Tyrosine-protein kinase JAK3 (Homo sapiens, UniProt P52333); test: Inhibitory activity against JAK3
T2 sequence (P52333 whole entry): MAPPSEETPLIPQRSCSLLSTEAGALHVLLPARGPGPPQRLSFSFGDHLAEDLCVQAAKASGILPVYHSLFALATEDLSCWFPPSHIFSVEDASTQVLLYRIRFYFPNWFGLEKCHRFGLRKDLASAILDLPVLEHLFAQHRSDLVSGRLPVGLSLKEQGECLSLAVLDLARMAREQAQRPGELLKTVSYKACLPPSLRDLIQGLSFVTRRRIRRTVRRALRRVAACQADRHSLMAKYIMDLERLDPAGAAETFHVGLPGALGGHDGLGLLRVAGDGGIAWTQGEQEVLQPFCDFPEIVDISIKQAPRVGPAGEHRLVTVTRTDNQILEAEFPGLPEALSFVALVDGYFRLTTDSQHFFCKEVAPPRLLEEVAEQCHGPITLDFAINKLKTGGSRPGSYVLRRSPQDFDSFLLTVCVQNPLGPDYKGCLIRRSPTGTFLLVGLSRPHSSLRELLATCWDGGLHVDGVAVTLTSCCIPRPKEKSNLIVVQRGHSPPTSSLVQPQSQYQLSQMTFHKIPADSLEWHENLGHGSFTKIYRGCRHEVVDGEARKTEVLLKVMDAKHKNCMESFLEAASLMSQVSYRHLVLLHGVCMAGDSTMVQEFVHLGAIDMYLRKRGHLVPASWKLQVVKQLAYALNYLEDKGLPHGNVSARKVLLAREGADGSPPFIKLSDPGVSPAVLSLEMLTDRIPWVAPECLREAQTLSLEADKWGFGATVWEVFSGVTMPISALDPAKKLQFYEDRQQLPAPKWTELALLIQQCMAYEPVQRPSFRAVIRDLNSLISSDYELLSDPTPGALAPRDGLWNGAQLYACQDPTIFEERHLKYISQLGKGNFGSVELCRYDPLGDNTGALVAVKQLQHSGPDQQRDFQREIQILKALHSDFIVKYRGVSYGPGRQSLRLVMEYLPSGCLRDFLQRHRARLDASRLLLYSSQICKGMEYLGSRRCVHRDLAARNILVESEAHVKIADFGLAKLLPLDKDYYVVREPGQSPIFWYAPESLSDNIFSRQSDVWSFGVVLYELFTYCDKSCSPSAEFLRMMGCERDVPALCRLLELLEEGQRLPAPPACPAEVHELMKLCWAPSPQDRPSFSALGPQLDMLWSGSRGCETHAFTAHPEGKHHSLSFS

[17] = target: Mitogen-activated protein kinase 14 (Homo sapiens, UniProt Q16539); test: Inhibitory activity against p38-alpha MAPK
SW-620 [18] = test: Antiproliferative activity against human colorectal carcinoma SW620 cells
[19] = Volume of distribution in rat; type: ADME, organism-based; details: in vivo, read-out: Vdss
Mus musculus = species: Mus musculus; test: Conversion to parent, N-(3-fluorophenyl)-2-{2-[(7-{3 -[4-(hydroxymethyl)piperidin-1 -yl]propoxy}-6-methoxyquinazol in-4-yl)amino]-1,3-thiazol-5-y l}acetamide in mouse plasma; type: ADME, organism-based; details: in vivo
[20] = Solubility in Tris buffer at pH 9.0, 25 degC; type: physicochemical
Aurora kinase B = Aurora kinase B (Homo sapiens, UniProt Q96GD4); test: Inhibition of Aurora-B immunoprecipitated from mitotic cells; type: functional
Aurora kinase B, sequence (Q96GD4 whole entry): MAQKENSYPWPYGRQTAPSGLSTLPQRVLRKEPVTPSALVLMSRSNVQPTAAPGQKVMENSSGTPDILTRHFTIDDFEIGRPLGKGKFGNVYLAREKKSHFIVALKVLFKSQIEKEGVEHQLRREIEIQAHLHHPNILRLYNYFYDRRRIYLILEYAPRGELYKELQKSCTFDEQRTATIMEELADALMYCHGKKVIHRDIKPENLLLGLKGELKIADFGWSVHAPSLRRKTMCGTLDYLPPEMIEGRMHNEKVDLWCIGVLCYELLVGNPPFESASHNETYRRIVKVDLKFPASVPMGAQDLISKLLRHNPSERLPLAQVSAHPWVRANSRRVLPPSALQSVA

SMILES | IC50 (Aurora kinase A) [µM] | IC50 (SW-620 [1]) [µM] | IC50 [2] [µM] | further results
COc1cc2c(Nc3ncc(CC(=O)Nc4cccc(F)c4F)s3)ncnc2cc1OCCCN1CCC[C@H]1CO | 0.002 | 0.001 |  | 
COc1cc2c(Nc3ncc(CNC(=O)c4cccc(F)c4)s3)ncnc2cc1OCCCN1CCC(CO)CC1 | 0.111 | 2.8 | 0.136 | 
COCCOc1cc2ncnc(Nc3ncc(CC(=O)Nc4cccc(F)c4)s3)c2cc1OC | 0.001 | 0.01 | 0.008 | 
COc1cc2c(Nc3ncc(CC(=O)Nc4cccc(F)c4)s3)ncnc2cc1OCCCN1CCC(CO)CC1 |  | 0.005 | 0.007 | IC50 [3]: > 100 µM; logD [4]: 3.2; IC50 [5]: 1 µM; IC50 [6]: 8 µM; solubility [7]: 35 µg/mL (≈ 0.0603 mM); clearance [8]: 16.6 mL/min/kg; IC50 [9]: 3 µM; IC50 (Focal adhesion kinase 1): 4 µM; IC50 [10]: 21 µM; IC50 [11]: 62 µM; fraction unbound [12]: 0.024; half-life [13]: 5 h; IC50 [14]: > 100 µM; IC50 [15]: 13 µM; IC50 [16]: 25 µM; IC50 [17]: > 100 µM; IC50 (SW-620 [18]): 0.002 µM; Vd [19]: 1.8 L/kg
COc1cc2c(Nc3ncc(C)s3)ncnc2cc1OCCCN1CCOCC1 | 0.043 | 1.1 | 0.133 | 
CCCCc1cnc(Nc2ncnc3cc(OCCCN4CCOCC4)c(OC)cc23)s1 | 0.006 | 1.9 | 0.063 | 
COc1cc2c(Nc3ncc(SCc4cccc(F)c4)s3)ncnc2cc1OCCCN1CCC(CO)CC1 | < 0.001 | 0.4 | < 0.001 | 
CCN(C(=O)Cc1cnc(Nc2ncnc3cc(OCCCN4CCOCC4)c(OC)cc23)s1)c1ccccc1 | 0.055 | 2.3 | 0.286 | 
CCN(CCO)CCCOc1cc2ncnc(Nc3ncc(CC(=O)Nc4cccc(F)c4)s3)c2cc1OC | < 0.001 | < 0.001 | < 0.001 | 
COc1cc2c(Nc3ncc(CC(=O)Nc4cccc(F)c4)s3)ncnc2cc1OCCCN1CCOCC1 | < 0.001 | < 0.001 | < 0.001 | 
COc1cc2c(Nc3nc(C(=O)Nc4ccc(F)cc4)c[nH]3)ncnc2cc1OCCCN1CCOCC1 | > 1 | > 10 | > 1 | 
COc1cc2c(Nc3ncc(Oc4cccc(F)c4)s3)ncnc2cc1OCCCN1CCC(CO)CC1 |  | 0.2 | < 0.001 | 
COc1cc2c(Nc3ncc(CC(=O)Nc4cccc(F)c4)o3)ncnc2cc1OCCCN1CCOCC1 | 0.472 | 1 | 0.341 | 
COc1cc2c(Nc3ncc(C(=O)Nc4ccc(F)cc4)s3)ncnc2cc1OCCCN1CCOCC1 | 0.001 | 0.6 | 0.049 | 
COc1cc2c(Nc3ncc(CC(=O)Nc4cccc(F)c4)s3)ncnc2cc1OCCN1CCC(CCO)CC1 | < 0.001 | 0.019 | < 0.001 | 
COc1cc2c(Nc3ncc(CC(=O)Nc4cccc(F)c4)s3)ncnc2cc1OCCCN1CCC(COP(=O)(O)O)CC1 |  |  |  | T1/2 (Mus musculus): 0.7 h; solubility [20]: 10000 µg/mL (≈ 15.1 mM)
COc1cc2c(Nc3ncc(CC(=O)Nc4ccccc4C(N)=O)s3)ncnc2cc1OCCCN1CCC[C@H]1CO | 0.452 | > 10 | 0.282 | 
COc1cc2c(Nc3ncc(CC(=O)Nc4cccc(N(C)C)c4)s3)ncnc2cc1OCCCN1CCC[C@H]1CO | 0.483 | 0.6 | 0.048 | 
COc1cc2c(Nc3ncc(CC(=O)Nc4cccc(F)c4)s3)ncnc2cc1OCCCNCCO |  | 0.08 | 0.001 | 
C#CCN(CCO)CCCOc1cc2ncnc(Nc3ncc(CC(=O)Nc4cccc(F)c4)s3)c2cc1OC | < 0.001 | 0.02 | < 0.001 | 
COc1cc2c(Nc3ncc(CC(=O)Nc4cccc(F)c4)s3)ncnc2cc1OCCCN1CCC[C@H]1CO | < 0.001 | 0.004 | < 0.001 | 
COc1cc2c(Nc3ncc(CC(=O)Nc4cccc(F)c4)s3)ncnc2cc1OCCCN1CCN(C)CC1 | < 0.001 | 0.002 | < 0.001 | 
COc1cc2c(Nc3ncc(CNS(=O)(=O)c4cccc(F)c4)s3)ncnc2cc1OCCCN1CCC(CO)CC1 | 0.012 | 0.8 | 0.028 | 
COc1cc2c(Nc3nc(CC(=O)Nc4cccc(F)c4)cs3)ncnc2cc1OCCCN1CCOCC1 | 0.578 | 0.2 | 0.012 | 
COc1cccc(NC(=O)Cc2cnc(Nc3ncnc4cc(OCCCN5CCC[C@H]5CO)c(OC)cc34)s2)c1 | 0.106 | 1 | 0.005 | 
COc1cc2c(Nc3ncc(CC(=O)NCCC(C)C)s3)ncnc2cc1OCCCN1CCOCC1 | 0.158 | 0.4 | 0.005 | 
CCS(=O)(=O)Nc1ccc2c(c1)/C(=C(/Nc1ccc(CN3CCCCC3)cc1)c1ccccc1)C(=O)N2 [HESPERADIN] |  |  |  | IC50 (Aurora kinase B): 0.25 µM
